US9150568B2, “Compositions and methods for modulating FXR” (NOVARTIS AG, priority 2010, dated 2015)

target: T1, human Farnesoid X Receptor (FXR) ligand binding domain (GST-FXR LBD) (Homo sapiens, UniProt Q96RI1); assay: Human GST-FXR LBD co-activator interaction assay (HTRF); assay type: biochemical; conditions: GST-FXR LBD / biotin-SRC-1 peptide FRET; response relative to GW4064; read-out: FXR Co-activator interaction assay (EC50)
T1 construct: purchased Invitrogen
T1 sequence (Q96RI1 193-472 isoform Q96RI1-2): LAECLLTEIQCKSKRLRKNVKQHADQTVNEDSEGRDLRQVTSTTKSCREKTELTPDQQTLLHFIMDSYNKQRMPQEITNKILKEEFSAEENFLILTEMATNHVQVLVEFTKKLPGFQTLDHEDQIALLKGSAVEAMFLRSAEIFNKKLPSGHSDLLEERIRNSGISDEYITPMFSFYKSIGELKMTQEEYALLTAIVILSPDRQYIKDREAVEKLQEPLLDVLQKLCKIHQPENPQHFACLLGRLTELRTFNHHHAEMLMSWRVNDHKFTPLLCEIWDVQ
From the text: Human GST-FXR LBD Co-activator interaction Assay. The FXR HTRF assay is a biochemical assay measuring the interaction between FXR and a coactivator protein (SRC1). The ligand-induced interaction with a coactivator protein is a critical step in transcriptional activation by FXR. Thus, this is an assay designed to measure FXR agonist activity of compounds.
The ligand-dependent interaction between GST-FXR LBD and a peptide derived from Steroid Receptor Coactivator-1 (SRC-1) was monitored by Fluorescence Resonance Energy Transfer (FRET). […] Test compounds (in DMSO solution) and detection reagents (anti-GST-Cryptate labeled antibody and Streptavidin-XL665 conjugate; CisBio) were added in assay buffer containing 50 mM KF.
A negative control (without Streptavidin-XL665) was run with each assay and represented the background fluorescence. A reference FXR agonist, GW4064, was included in each experiment as positive control. The efficacy of each test compound was compared to that of GW4064. At each concentration, the relative activity of the test compound was expressed as Response %=(Rsample−RDMSO)/(Rpositive−RDMSO), where Rsample is the HTRF response (expressed in Delta F %) for the test compound, Rpositive is the maximal response for GW4064 at saturating concentrations, and RDMSO is the response for DMSO control. The EC50 values were calculated using GraphPad Prism (GraphPad Software) using non-linear regression curve fit (log(agonist) vs. response—variable slope (four parameters)).

SMILES | EC50
COc1cc(C(=O)O)cc2sc(N3C4CC[C@H]3C[C@H](OCc3c(C5CCCCC5)noc3C3CC3)C4)nc12 [Example 9-2] | 11 nM
O=C(O)c1ccc2nc(N3C4CC[C@H]3C[C@H](OCc3c(C5CC5c5ccccc5)noc3C3CC3)C4)sc2c1 (stereo partly drawn) [Example 10B, 2-(3-((5-cyclopropyl-3-(2-phenylcyclopropyl)isoxazol-4-yl)methoxy)-8-azabicyclo[3.2.1]octan-8-yl)benzo[d]thiazole-6-carboxylic acid] | 98 nM
CC1CC1c1noc(C2CC2)c1CO[C@@H]1CC2CC[C@@H](C1)N2c1nc2c(F)cc(C(=O)O)cc2s1 (stereo partly drawn) [Example 12-1] | 25 nM
O=C(O)c1cc(F)c2nc(N3C4CC[C@H]3C[C@H](OCc3c(C5CC5)noc3C3CC3)C4)sc2c1 [Example 12-2] | 40 nM
COc1cc(C(=O)O)cc2sc(N3C4CC[C@H]3C[C@H](OCc3c(C5CC5)noc3C3CC3)C4)nc12 [Example 12-3] | 40 nM
O=C(O)c1ccc2nc(N3C4CC[C@H]3C[C@H](OCc3c(C5CCC6(CC5)CC6)noc3C3CC3)C4)sc2c1 [Example 13-1B] | 1.3 nM
O=C(O)c1cc(F)c2nc(N3C4CC[C@H]3C[C@H](OCc3c(C5CCC6(CC5)CC6)noc3C3CC3)C4)sc2c1 [Example 13-2B] | 0.53 nM
COc1cc(C(=O)O)cc2sc(N3C4CC[C@H]3C[C@H](OCc3c(C5CCC6(CC5)CC6)noc3C3CC3)C4)nc12 [Example 13-3B] | 0.67 nM
Cc1cc(C(=O)O)nc(N2C3CC[C@H]2C[C@H](OCc2c(C4CCC5(CC4)CC5)noc2C2CC2)C3)n1 [Example 14] | 35 nM
O=C(O)CNC(=O)c1ccc2nc(N3C4CC[C@H]3C[C@H](OCc3c(-c5ccccc5OC(F)(F)F)noc3C3CC3)C4)sc2c1 [Example 15-1B, 2-(2-(3-((5-cyclopropyl-3-(2-(trifluoromethoxy)phenyl)isoxazol-4-yl)methoxy)-8-azabicyclo[3.2.1]octan-8-yl)benzo[d]thiazole-6-carboxamido)acetic acid] | 0.6 nM
O=C(O)CNC(=O)c1cc(F)c2nc(N3C4CC[C@H]3C[C@H](OCc3c(-c5ccccc5OC(F)(F)F)noc3C3CC3)C4)sc2c1 [Example 15-2] | 0.5 nM
O=C(O)CNC(=O)c1ccc(N2C3CC[C@H]2C[C@H](OCc2c(-c4ccccc4OC(F)(F)F)noc2C2CC2)C3)nc1 [Example 15-3] | 17 nM
O=C(O)CNC(=O)c1cc(F)c2nc(N3C4CC[C@H]3C[C@H](OCc3c(-c5ccccc5C(F)(F)F)noc3C3CC3)C4)sc2c1 [Example 15-4] | 0.8 nM
O=C(NCCS(=O)(=O)O)c1ccc2nc(N3C4CC[C@H]3C[C@H](OCc3c(-c5ccccc5OC(F)(F)F)noc3C3CC3)C4)sc2c1 [Example 16-1, 2-(2-(3-((5-cyclopropyl-3-(2-(trifluoromethoxy)phenyl)isoxazol-4-yl)methoxy)-8-azabicyclo[3.2.1]octan-8-yl)benzo[d]thiazole-6-carboxamido)ethanesulfonic acid] | 0.6 nM
O=C(NCCS(=O)(=O)O)c1cc(F)c2nc(N3C4CC[C@H]3C[C@H](OCc3c(-c5ccccc5OC(F)(F)F)noc3C3CC3)C4)sc2c1 [Example 16-2] | 0.4 nM
O=C(NCCS(=O)(=O)O)c1cc(F)c2nc(N3C4CC[C@H]3C[C@H](OCc3c(-c5ccccc5C(F)(F)F)noc3C3CC3)C4)sc2c1 [Example 16-3] | 1.2 nM
O=C(NCCS(=O)(=O)O)c1ccc(N2C3CC[C@H]2C[C@H](OCc2c(-c4ccccc4OC(F)(F)F)noc2C2CC2)C3)nc1 [Example 16-4] | 9 nM
COC(=O)c1cnc(N2C3CC[C@H]2C[C@H](OCc2c(-c4ccccc4OC(F)(F)F)noc2C2CC2)C3)c(Br)c1 [Example 18-1, Methyl 5-bromo-6-((1S,3R)-3-((5-cyclopropyl-3-(2-(trifluoromethoxy)phenyl)isoxazol-4-yl)methoxy)-8-azabicyclo[3.2.1]octan-8-yl)nicotinate] | 9 nM
